Assay results as given in PMC8800119 (The Journal of Biological Chemistry, 2022).

Target: T1, glutaminase C (GAC) (Homo sapiens, UniProt O94925, Y466W)
T1 sequence (O94925 72-550 Y466W): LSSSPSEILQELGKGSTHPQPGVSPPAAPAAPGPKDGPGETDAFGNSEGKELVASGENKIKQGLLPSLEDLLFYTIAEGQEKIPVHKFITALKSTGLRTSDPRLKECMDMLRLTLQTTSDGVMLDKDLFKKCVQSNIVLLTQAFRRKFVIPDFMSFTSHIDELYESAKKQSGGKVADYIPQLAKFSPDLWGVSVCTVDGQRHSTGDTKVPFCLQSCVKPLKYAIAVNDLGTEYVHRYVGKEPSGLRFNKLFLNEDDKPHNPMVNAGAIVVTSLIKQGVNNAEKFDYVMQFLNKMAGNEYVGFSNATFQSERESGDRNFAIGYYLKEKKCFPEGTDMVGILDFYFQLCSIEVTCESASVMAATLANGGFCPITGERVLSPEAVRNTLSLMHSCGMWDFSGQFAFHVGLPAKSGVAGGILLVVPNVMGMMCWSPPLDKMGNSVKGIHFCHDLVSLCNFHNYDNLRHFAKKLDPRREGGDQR
Experiment: Trp466 fluorescence titration of phosphate at […] glutamine
Assay type: binding

Kd: 8.5 ± 1.9 mM
SMILES: O=P(O)(O)O [inorganic phosphate]
